The target of one test is T1, α7 receptor (Rattus norvegicus, UniProt Q05941).
T1 construct: expressed in transfected cells; host or cells: Xenopus oocytes injected with in vitro transcribed mRNA
Briefly: ACh-evoked currents in α7 receptors expressed in Xenopus oocytes (two-electrode voltage clamp). It is filed as cell-based. The note with it: for % of the original amplitude (Ach-evoked current): treatment as labelled, nefiracetam 1 µM, GF109203X 100 nM, peptides co-expressed, Mean ± SD, n = 6 to 8; for normalized response (%): nef(-), n=5. The procedure:
Two-electrode voltage-clamp technique was used to record expression α4β2 or α7 receptors in oocytes. […] The holding voltage was -30 or -60 mV for α4β2-nAChR or α7-nAChR, respectively. Downward directions correspond to inward currents.
(§1) mRNAs for the rat α4β2 receptor and α7 receptor, GLUR1, 2, 3 receptors, and NP152 and NP153 were constructed as described previously. Xenopus oocytes were manually separated from the ovary, and subjected to treatment with collagenase (0.5 mg/ml). Thereafter, the treated oocytes were incubated overnight in Barth's solution (in mM, 88 NaCl, 1 KCl, 2.4 NaHCO3, 0.82 MgSO4, 0.33 […], 0.41 CaCl2, and 7.5 Tris; pH 7.6). The oocytes were injected with the α4β2 or α7 receptor mRNA and incubated at 18°C. In some cases, NP152 and NP153 were co-expressed with the α4β2 and α7 receptors. The injected oocytes were incubated and transferred to a recording chamber 2-7 days after incubation and continuously superfused at room temperature (20-22°C) with a standard frog Ringer's solution [in mM: 115 NaCl, 2 KCl, 1.8 CaCl2, 5 HEPES; pH 7.0]. To remove the effect of endogenous muscarinic ACh receptor, 1 µM atropine was added to the extracellular solution. ACh-evoked currents were recorded by use of two-electrode voltage clamp techniques and an amplifier (GeneClamp-500, Axon Instrument, Inc. USA). The currents were analyzed on a microcomputer by pClamp software (Axon Instrument, Inc.; Version 6). From the results, an assessment was made as to whether nefiracetam actually acts on the nACh receptors.

In a further test the target is T2, α4β2 receptor (Rattus norvegicus, UniProt P09483+P12390).
T2 construct: expressed in transfected cells; host or cells: Xenopus oocytes injected with in vitro transcribed mRNA
T2 sequence (P09483 31-630): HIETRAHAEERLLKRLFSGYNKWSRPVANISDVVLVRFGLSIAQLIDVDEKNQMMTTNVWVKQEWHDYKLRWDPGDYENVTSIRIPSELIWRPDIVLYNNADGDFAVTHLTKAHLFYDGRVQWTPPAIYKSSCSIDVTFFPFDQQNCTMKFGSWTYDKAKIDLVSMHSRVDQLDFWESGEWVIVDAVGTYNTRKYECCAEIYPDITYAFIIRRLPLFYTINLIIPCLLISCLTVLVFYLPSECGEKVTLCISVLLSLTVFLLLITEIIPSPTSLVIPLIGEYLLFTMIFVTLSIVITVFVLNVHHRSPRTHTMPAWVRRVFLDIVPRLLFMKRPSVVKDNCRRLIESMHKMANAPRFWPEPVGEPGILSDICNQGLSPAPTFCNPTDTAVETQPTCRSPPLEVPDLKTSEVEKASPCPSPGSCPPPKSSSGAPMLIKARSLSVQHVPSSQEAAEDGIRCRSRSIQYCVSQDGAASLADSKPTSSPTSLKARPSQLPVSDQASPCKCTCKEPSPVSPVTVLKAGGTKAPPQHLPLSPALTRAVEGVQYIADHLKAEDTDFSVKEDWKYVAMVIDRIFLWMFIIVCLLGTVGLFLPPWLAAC
T2 sequence (P12390 25-500): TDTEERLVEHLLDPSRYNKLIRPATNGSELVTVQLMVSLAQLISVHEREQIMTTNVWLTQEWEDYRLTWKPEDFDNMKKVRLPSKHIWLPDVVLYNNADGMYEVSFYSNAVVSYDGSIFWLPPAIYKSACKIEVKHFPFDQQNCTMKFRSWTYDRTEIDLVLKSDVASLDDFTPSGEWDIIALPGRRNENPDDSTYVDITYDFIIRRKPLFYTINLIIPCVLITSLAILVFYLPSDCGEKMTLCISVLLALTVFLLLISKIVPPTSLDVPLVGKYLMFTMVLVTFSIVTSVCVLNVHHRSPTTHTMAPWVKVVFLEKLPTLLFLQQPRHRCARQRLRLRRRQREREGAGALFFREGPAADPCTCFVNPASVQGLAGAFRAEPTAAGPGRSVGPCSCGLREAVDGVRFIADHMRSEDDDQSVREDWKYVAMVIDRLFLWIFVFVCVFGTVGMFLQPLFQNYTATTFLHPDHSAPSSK
Briefly: ACh-evoked currents in α4β2 receptors expressed in Xenopus oocytes (two-electrode voltage clamp). The class given is cell-based. The following applies: for % of the original amplitude (Ach-evoked current): treatment as labelled, nefiracetam 1 µM, GF109203X 100 nM, peptides co-expressed, Mean ± SD, n = 6 to 8; for normalized response (%): nef(-), n=5. The procedure: Two-electrode voltage-clamp technique was used to record expression α4β2 or α7 receptors in oocytes. ACh (100 µM) was applied to a single oocyte in the presence or absence of α-BuTX (50 nM) or MCA (3 µM). The holding voltage was -30 or -60 mV for α4β2-nAChR or α7-nAChR, respectively. Downward directions correspond to inward currents.
as §1

In test [1] the test system is glutamate release from hippocampal slices. The class given is cell-based, guinea pig. The following applies: St (ES+) electrical stimulation; nefiracetam 1 µM, tetrodotoxin 0.5 µM, α-bungarotoxin 50 nM, mecamylamine 3 µM.
In test [2] the test system is postsynaptic potentials evoked from the hippocampal CA1 region. Nature of the test: Postsynaptic potentials recorded in the CA1 pyramidal cell layer of rat hippocampal slices. It is filed as cell-based. The note with it: Rattus norvegicus, APV 100 µM alone, -10 to -1 min before nefiracetam; Time (min) in c0; n=5; read-out: Postsynaptic potential (% of original amplitude).

T1 sequence (Q05941 23-502): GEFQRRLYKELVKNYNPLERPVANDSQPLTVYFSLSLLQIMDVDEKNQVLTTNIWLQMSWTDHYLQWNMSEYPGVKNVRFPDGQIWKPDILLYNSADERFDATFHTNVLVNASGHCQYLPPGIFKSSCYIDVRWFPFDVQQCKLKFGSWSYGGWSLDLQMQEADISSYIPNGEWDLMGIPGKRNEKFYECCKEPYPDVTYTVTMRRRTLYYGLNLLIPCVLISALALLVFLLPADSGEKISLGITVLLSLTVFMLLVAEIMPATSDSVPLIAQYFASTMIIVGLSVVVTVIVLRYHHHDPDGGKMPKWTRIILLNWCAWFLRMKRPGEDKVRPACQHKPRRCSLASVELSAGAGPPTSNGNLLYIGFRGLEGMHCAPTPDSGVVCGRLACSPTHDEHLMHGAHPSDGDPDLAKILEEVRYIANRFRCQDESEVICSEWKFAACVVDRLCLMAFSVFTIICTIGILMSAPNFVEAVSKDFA

Regarding `CN(C)CCCn1cc(C2=C(c3c[nH]c4ccccc34)C(=O)NC2=O)c2ccccc21` [GF109203X, reference compound], the “% of the original amplitude (Ach-evoked current)” value (from here on “% of the original amplitude”) was 102.2 ± 9.6% on α7 receptor and 79.3 ± 15% on α4β2 receptor.

Turning to `CNC1(C)C2CCC(C2)C1(C)C` (stereo not drawn) [mecamylamine, reference compound], in test [1], the “Amount of released glutamate” value is listed as 2.45 ± 0.3 (c) nmol/mg protein/10min. For the same molecule, the “effect on ACh-evoked current (Fig. 3)” value at α4β2 receptor (MCA 3 µM, ACh 100 µM, holding voltage -30 mV) is on record as “strongly inhibit”.

`Nc1nc2c(ncn2[C@@H]2O[C@H](COP(=O)(O)OP(O)(O)=S)[C@@H](O)[C@H]2O)c(=O)[nH]1` [GDPβS, reference compound]: the “% of the original amplitude” value at α7 receptor was 100 ± 11%; at α4β2 receptor, 96 ± 10%.

Turning to `O=S(=O)(NCCNCC=Cc1ccc(Br)cc1)c1cccc2cnccc12` [H89, N-[2-(p-Bromocinnamylamino)ethyl]-5-isoquinolinesulfonamide · 2HCl, reference compound], the “% of the original amplitude” value on α7 receptor is reported as 99.4 ± 5.8%; at α4β2 receptor it was 98.8 ± 12%.

For `CC(=O)OCC[N+](C)(C)C` [ACh, reference compound], the “normalized response (%)” value at α7 receptor (ACh 0.1 µM) is given as 0%; on α7 receptor (ACh 1 µM) it was 0.5%; at α7 receptor (ACh 10 µM), 1%; at α7 receptor (ACh 100 µM) it was 28%; at α7 receptor (ACh 1000 µM), 100%; at α4β2 receptor (ACh 0.1 µM), 0%. Further, the “normalized response (%)” value at α4β2 receptor (ACh 1 µM) was found to be 3%; at α4β2 receptor (ACh 10 µM), 43%; at α4β2 receptor (ACh 100 µM) it was 75%; on α4β2 receptor (ACh 1000 µM), 100%.

Consider `N[C@H](CCCP(=O)(O)O)C(=O)O` [APV, D-2-amino-5-phosphonovaleric acid, reference compound], for which the activity at 100 µM in test [2] was 87 ± 7%.

As to `CN[C@@H]1C[C@H]2O[C@@](C)([C@@H]1OC)n1c3ccccc3c3c4c(c5c6ccccc6n2c5c31)C(=O)NC4` [Staurosporine, reference compound], the “% of the original amplitude” value at α7 receptor is on record as 101 ± 8%; at α4β2 receptor, 90 ± 8%.

The record behind these values is patent EP1022029A1, “NOOTROPIC AGENT” (priority 1997, dated 1999).
